Measured values: ChEMBL document CHEMBL1201862, “PubChem BioAssay data set” (2004)
Activity calls are given as the source filed them.

What was measured:
[1] = biological target: T1, Dual specificity protein phosphatase 3 (Homo sapiens, UniProt P51452); experiment: SAR VHR1 Fluorescent Assay for In Vitro dose response studies Set 2. [Related pubchem assays (depositor defined):AID1654, AID1661, AID1878]; type: functional
[2] = biological target: T1, Dual specificity protein phosphatase 3; experiment: VHR1 phosphatase inhibitors, biochemical (AID 1878)
[3] = biological target: T1, Dual specificity protein phosphatase 3; experiment: SAR VHR1 Fluorescent Assay for In Vitro dose response studies. [Related pubchem assays (depositor defined):AID1654, AID1661, AID1878, AID1992, AID2004, AID2070, AID2085]; type: functional
[4] = biological target: T2, Tyrosine-protein phosphatase non-receptor type 7 (Homo sapiens, UniProt P35236); experiment: SAR analysis of chemical inhibitors of HePTP using a Fluorescent assay - Set 2. [Related pubchem assays (depositor defined):AID1059, AID1077, AID1661, AID2085, AID521]; type: functional
T2 sequence (P35236 whole entry): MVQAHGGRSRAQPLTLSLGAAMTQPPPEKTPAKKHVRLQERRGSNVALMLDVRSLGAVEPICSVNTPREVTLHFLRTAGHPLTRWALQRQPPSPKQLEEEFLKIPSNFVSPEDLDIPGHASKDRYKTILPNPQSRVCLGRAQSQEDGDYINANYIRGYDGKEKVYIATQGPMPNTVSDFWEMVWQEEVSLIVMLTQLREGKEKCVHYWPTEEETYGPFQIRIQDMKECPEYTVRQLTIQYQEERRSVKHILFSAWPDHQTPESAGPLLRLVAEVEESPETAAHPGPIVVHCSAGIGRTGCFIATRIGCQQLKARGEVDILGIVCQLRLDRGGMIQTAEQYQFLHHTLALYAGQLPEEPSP

[5] = biological target: T3, Dual specificity protein phosphatase 6 (Rattus norvegicus, UniProt Q64346); experiment: inhibition of rat DUSP6 enzyme activity – biochemical, in vitro, primary screen (AID 425)
T3 sequence (Q64346 whole entry): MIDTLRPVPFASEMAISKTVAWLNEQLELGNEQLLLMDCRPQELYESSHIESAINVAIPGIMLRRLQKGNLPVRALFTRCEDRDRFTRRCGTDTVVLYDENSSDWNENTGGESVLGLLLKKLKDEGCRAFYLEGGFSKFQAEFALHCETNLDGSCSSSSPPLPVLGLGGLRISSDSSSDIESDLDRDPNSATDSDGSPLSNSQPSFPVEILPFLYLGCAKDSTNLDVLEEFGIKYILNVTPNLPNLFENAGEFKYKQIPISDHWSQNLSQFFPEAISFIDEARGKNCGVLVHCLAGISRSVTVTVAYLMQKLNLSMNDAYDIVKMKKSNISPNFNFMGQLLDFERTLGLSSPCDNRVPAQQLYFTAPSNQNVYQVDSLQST

cells [6] = type: functional, cell-based
[7] = biological target: Tyrosine-protein phosphatase non-receptor type 11 (Homo sapiens, UniProt Q06124); experiment: PTPN11 enzyme inhibitors – biochemical, selectivity assay for STEP inhibitor project, dose response (AID 602367); type: functional; settings: read-out: IC50_Mean
Sequence of Tyrosine-protein phosphatase non-receptor type 11 (Q06124 whole entry): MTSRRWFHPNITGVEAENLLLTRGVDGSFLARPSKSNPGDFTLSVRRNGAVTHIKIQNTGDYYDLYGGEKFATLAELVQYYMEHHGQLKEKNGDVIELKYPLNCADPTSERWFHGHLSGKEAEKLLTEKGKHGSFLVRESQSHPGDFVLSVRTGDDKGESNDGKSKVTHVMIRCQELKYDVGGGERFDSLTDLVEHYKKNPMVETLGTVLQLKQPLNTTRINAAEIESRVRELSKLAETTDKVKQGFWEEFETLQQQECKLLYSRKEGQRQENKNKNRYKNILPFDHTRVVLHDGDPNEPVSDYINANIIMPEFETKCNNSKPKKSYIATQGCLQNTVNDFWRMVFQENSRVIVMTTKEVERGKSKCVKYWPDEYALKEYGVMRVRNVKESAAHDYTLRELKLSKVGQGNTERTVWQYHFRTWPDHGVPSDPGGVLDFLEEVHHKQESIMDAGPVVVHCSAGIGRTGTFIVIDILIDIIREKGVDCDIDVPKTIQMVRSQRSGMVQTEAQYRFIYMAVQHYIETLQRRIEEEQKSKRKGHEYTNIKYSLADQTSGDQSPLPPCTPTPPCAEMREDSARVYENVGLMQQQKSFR

[8] = biological target: T1, Dual specificity protein phosphatase 3; experiment: VHR1 phosphatase inhibitors, primary screen, biochemical, absorbance, uHTS (AID 1654)
[9] = biological target: T3, Dual specificity protein phosphatase 6; experiment: SAR analysis of inhibitors of MKP-3 - Set 2. [Related pubchem assays (depositor defined):AID1055, AID1661, AID425, AID553, AID566]; type: functional
[10] = biological target: T2, Tyrosine-protein phosphatase non-receptor type 7; experiment: redox-active compounds inhibiting HePTP phosphatase – biochemical, fluorescence, mechanism study (AID 2068); type: functional
[11] = biological target: T1, Dual specificity protein phosphatase 3; experiment: VHR phosphatase inhibition, dose response, selectivity assay for STEP inhibitor project, biochemical (AID 602374); type: functional; settings: read-out: IC50_Mean
[12] = biological target: T3, Dual specificity protein phosphatase 6; type: functional
cells [13] = type: functional, cell-based; remark: listed apart in the source
[14] = biological target: T4, Trace amine-associated receptor 1 (Homo sapiens, UniProt Q96RJ0); experiment: Counterscreen for agonists of the human trace amine associated receptor 1 (hTAAR1): Fluorescence-based cell-based high throughput dose response assay to identify hTAAR1 agonist that also desensitize TAAR1 receptor response.; type: functional
T4 sequence (Q96RJ0 whole entry): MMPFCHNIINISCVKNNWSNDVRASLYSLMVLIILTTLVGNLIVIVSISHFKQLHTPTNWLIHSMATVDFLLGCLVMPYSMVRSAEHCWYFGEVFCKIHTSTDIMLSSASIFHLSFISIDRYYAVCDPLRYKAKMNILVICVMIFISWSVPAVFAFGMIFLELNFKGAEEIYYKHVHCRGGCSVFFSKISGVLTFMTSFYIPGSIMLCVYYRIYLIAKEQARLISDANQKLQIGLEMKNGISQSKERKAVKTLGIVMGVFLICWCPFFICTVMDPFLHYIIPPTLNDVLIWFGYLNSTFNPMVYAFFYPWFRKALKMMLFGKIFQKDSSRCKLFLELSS

[15] = biological target: T4, Trace amine-associated receptor 1; experiment: Fluorescence-based cell-based high throughput dose response assay to identify agonists of the human trace amine associated receptor 1 (TAAR1).; type: functional
[16] = biological target: Tyrosine-protein phosphatase non-receptor type 5 (Homo sapiens, UniProt P54829); experiment: PTPN5 enzyme inhibition – biochemical, fluorescence intensity, uHTS hits, confirmation (AID 602372); type: functional; settings: read-out: IC50_Mean
Sequence of Tyrosine-protein phosphatase non-receptor type 5 (P54829 whole entry): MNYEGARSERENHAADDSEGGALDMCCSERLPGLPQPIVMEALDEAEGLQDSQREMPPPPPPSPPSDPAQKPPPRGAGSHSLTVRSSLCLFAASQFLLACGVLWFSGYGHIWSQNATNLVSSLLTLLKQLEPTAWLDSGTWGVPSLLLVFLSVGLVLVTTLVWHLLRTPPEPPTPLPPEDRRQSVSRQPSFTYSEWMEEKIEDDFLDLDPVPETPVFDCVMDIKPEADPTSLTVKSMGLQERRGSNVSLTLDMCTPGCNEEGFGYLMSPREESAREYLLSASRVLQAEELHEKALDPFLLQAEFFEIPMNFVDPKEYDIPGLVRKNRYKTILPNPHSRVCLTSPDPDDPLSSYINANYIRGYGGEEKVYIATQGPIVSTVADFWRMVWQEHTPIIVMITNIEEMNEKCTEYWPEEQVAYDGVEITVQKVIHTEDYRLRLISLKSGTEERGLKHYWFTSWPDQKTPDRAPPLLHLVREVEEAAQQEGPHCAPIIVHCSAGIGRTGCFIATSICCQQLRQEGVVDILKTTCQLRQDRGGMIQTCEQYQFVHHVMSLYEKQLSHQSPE

[17] = biological target: T1, Dual specificity protein phosphatase 3; experiment: SAR VHR1 absorbance Assay for In Vitro dose response studies. [Related pubchem assays (depositor defined):AID1654, AID1661, AID1878, AID1992, AID2004]
Cytochrome P450 1A2 = biological target: T5, Cytochrome P450 1A2 (Homo sapiens, UniProt P05177);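 further: PubChem cytochrome P450 panel assay, CYP1A2 panel member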
T5 sequence (P05177 whole entry): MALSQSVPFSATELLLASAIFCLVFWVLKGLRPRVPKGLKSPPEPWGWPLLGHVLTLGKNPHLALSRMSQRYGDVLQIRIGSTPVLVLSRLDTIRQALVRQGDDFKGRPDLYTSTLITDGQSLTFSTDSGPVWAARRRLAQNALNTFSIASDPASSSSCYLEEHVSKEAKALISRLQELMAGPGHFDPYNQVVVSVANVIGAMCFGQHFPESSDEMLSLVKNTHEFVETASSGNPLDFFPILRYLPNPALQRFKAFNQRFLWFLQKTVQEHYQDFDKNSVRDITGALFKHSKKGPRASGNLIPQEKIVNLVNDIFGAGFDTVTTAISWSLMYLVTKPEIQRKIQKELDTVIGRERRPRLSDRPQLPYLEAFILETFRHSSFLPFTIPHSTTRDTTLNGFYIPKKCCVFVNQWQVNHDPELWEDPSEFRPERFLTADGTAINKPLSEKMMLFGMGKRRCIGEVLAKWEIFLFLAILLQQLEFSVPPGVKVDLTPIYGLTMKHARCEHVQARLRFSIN

Cytochrome P450 2C9 = Cytochrome P450 2C9 (Homo sapiens, UniProt P11712)
Sequence of Cytochrome P450 2C9 (P11712 whole entry): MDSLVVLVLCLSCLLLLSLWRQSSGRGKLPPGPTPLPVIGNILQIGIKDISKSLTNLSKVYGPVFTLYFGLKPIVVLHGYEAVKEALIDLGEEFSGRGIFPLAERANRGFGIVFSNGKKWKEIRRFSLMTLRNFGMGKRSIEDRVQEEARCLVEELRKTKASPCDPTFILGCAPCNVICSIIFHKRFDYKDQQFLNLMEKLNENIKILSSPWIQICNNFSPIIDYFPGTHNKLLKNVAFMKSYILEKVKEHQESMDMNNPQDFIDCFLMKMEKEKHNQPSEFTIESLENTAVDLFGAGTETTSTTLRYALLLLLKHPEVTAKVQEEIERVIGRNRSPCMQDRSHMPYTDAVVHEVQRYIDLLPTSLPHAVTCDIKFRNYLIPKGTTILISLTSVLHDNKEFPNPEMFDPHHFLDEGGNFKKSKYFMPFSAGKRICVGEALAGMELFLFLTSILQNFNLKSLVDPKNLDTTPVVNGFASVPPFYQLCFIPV

Cytochrome P450 2C19 = Cytochrome P450 2C19 (Homo sapiens, UniProt P33261); experiment: Cytochrome panel assay with activity outcomes. Panel member name: p450-cyp2c19 Compounds with AC50 equal or less than 10 uM are considered active; type: functional
Sequence of Cytochrome P450 2C19 (P33261 whole entry): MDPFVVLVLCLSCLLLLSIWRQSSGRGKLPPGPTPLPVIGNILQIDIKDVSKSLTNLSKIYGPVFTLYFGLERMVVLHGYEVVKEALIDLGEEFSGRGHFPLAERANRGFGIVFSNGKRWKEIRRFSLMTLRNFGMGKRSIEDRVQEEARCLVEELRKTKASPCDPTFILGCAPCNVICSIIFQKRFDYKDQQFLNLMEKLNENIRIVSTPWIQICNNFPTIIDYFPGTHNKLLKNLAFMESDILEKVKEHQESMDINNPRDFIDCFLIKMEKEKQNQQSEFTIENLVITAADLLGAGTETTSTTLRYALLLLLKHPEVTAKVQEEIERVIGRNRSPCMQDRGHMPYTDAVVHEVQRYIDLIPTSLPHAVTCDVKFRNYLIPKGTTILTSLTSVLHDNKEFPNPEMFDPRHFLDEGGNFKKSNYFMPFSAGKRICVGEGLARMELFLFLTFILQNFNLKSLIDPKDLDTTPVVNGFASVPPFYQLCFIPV

HEK293 [18] = experiment: HEK293T cell viability loss, resazurin readout – resazurin fluorescence, cytotoxicity control for NF-kB activator project, SAR follow-up (AID 493251); type: functional, cell-based; settings: Homo sapiens
Jurkat = experiment: SAR Analysis of small molecule inhibitors of […] specific antigen receptor-induced NF-kB activation in a Jurkat cell line using a luminescence assay - Set 3. [Related pubchem assays (depositor defined):AID435022, AID435025, AID465]; type: functional, cell-based; settings: Homo sapiens
[19] = alpha-synuclein stem-loop translation blockers – luminescence, H4 neuroglioblastoma cells, dose confirmation, confirmation (AID 2454); type: functional, cell-based;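 further: H4 neuroglioblastoma cells carrying an alpha-synuclein 5'UTR luciferase reporter; potency for inhibition of the luciferase signal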
cells [20] = type: functional, cell-based; remark: listed apart in the source
[21] = Luminescence Cell-Based Dose Response HTS to Identify Inhibitors of 5'UTR Stem-Loop Driven Prion Protein mRNA Translation in H4 Neuroglioblastoma Cells. [Related pubchem assays: 1827 (Project Summary), 1813 (Primary HTS)]; type: functional
[22] = HEK-293T cell viability reduction – luminescence, B-cell screen hits, cytotoxicity control for BCR NF-kB inhibitor project, dose response (AID 489021); type: functional, cell-based;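 further: HEK-293T cells carrying an NF-kB luciferase reporter; cells exposed to compound for about 14 hours before viability readout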
[23] = Luminescence-based counterscreen assay for KLF5 inhibitors: dose response cell-based high throughput screening assay to identify cytotoxic compounds using the IEC-6 intestinal epithelial cell line. [Related pubchem assays: 1700 (Primary screen.), 1834 (Confirmation screen.), 1858 (Summary AID.), 1905 (Counterscreen.)]; type: functional
HEK293 [24] = experiment: SAR Analysis of small molecule inhibitors of B-cell specific antigen receptor-induced NF-kB activation in a HEK-293T cell line using a luminescence assay - Set 2. [Related pubchem assays (depositor defined):AID435022, AID435025, AID489021]; type: functional, cell-based; settings: Homo sapiens
[25] = luciferase reporter signal reduction – luminescence, H4-C neuroglioblastoma cells, dose response (AID 2458); type: functional, cell-based;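 further: H4 neuroglioblastoma cells stably carrying a luciferase reporter gene fusion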
[26] = luciferase reporter signal suppression in cells – H4 neuroglioma cells, luminescence, dose response (AID 1990); type: functional, cell-based
[27] = alpha-synuclein stem-loop luciferase translation blockers – H4 neuroglioma cells, luminescence, confirmation (AID 1988); type: functional, cell-based

T1 sequence (P51452 whole entry): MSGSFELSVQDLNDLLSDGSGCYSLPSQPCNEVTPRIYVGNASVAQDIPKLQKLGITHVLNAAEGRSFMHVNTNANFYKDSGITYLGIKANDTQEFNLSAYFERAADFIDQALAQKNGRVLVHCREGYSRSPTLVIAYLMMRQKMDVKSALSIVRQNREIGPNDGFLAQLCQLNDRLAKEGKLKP

Q: With `S=C(NCCc1ccccc1)Nc1c(Cl)cccc1Cl` as the compound, how does the IC50 [1] read?
A: Its IC50 is 0.347 µM (active).

Q: And the IC50 [2]?
A: Its IC50 is 4.31 µM (active).

Q: What about the IC50 [3] of the same compound?
A: The IC50 was > 99 µM (inactive).

Q: What about the IC50 [4] of the same compound?
A: Its IC50 is 0.447 µM (active).

Q: What about the IC50 [5] of the same compound?
A: The IC50 was > 158 µM (not active).

Q: And the IC50 (cells [6])?
A: The IC50 was > 29.9 µM (inactive).

Q: And the IC50 [7]?
A: The IC50 was 5.76 µM (active).

Q: And the IC50 [8]?
A: Its IC50 is 2.44 µM (active).

Q: What about the IC50 [9] of the same compound?
A: Its IC50 is > 100 µM (inactive).

Q: And the IC50 [10]?
A: The IC50 was 0.0345 µM (active).

Q: What about the IC50 [11] of the same compound?
A: Its IC50 is 1.12 µM (active).

Q: What about the IC50 [12] of the same compound?
A: Its IC50 is > 99 µM (inactive).

Q: And the EC50 (cells [13])?
A: The EC50 was > 29.9 µM (inactive).

Q: What about the IC50 [14] of the same compound?
A: Its IC50 is 4.11 µM (active).

Q: What about the EC50 [15] of the same compound?
A: The EC50 was 0.565 µM (active).

Q: And the IC50 [16]?
A: The IC50 was 14.5 µM (active).

Q: And the IC50 [17]?
A: The IC50 was 0.342 µM (active).

Q: Which AC50 (Cytochrome P450 1A2) does the source give for `Cc1noc(C)c1C(=O)N1CCC2(CCCN(C(=O)NC(C)C)C2)CC1` here?
A: The AC50 was “inconclusive”.

Q: What about the AC50 (Cytochrome P450 2C9) of the same compound?
A: Its AC50 is “inconclusive”.

Q: And the AC50 (Cytochrome P450 2C19)?
A: The AC50 was “inconclusive”.

Q: Which results are given for `CC(C)(C)c1ccc(-c2noc(CCC(=O)Nc3cccnc3)n2)cc1`?
A: IC50 (HEK293 [18]): 20.5 µM (inactive); IC50 (Jurkat): 0.435 µM (active); EC50 [19]: 0.774 µM (active); EC50 (cells [20]): 0.321 µM (active); EC50 [21]: < 0.1 µM (active); IC50 [22]: > 80 µM (inactive); IC50 [23]: > 39.8 µM (not active); IC50 (HEK293 [24]): 0.47 µM (active); EC50 [25]: 1.18 µM (active); EC50 [26]: < 0.1 µM (active); EC50 [27]: < 0.1 µM (active)
